From PMC2934701 (The Journal of Biological Chemistry, 2010)
Positions count from the first letter of the chain named.

What was measured:
Experiment in all cases: Fluo-4 calcium assay, HEK293T + Galpha16gust44
Type in all cases: cell-based
hTAS2R16 (ssr3-hTAS2R16) [1] = molecular target: T1, hTAS2R16 (ssr3-hTAS2R16) (Homo sapiens, UniProt Q9NYV7, I243L)
T1 sequence (Q9NYV7 1-291 I243L): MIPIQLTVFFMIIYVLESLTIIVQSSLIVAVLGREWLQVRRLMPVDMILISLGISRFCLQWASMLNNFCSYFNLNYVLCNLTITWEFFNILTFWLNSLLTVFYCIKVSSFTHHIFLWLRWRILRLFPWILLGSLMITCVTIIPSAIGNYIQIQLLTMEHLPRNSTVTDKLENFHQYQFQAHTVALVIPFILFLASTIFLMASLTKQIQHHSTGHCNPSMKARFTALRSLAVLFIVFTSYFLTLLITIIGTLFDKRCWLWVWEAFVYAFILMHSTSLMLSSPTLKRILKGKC

hTAS2R16 (ssr3-hTAS2R16) [2] = molecular target: T2, hTAS2R16 (ssr3-hTAS2R16) (Homo sapiens, UniProt Q9NYV7, W94Y)
T2 sequence (Q9NYV7 1-291 W94Y): T1 sequence (Q9NYV7 1-291 I243L) with W94Y, L243I

hTAS2R16 (ssr3-hTAS2R16) [3] = molecular target: T3, hTAS2R16 (ssr3-hTAS2R16) (Homo sapiens, UniProt Q9NYV7, F240Y)
T3 sequence (Q9NYV7 1-291 F240Y): T1 sequence (Q9NYV7 1-291 I243L) with F240Y, L243I

hTAS2R16 (ssr3-hTAS2R16) [4] = molecular target: T4, hTAS2R16 (ssr3-hTAS2R16) (Homo sapiens, UniProt Q9NYV7, F93A)
T4 sequence (Q9NYV7 1-291 F93A): T1 sequence (Q9NYV7 1-291 I243L) with F93A, L243I

SMILES: OCc1ccccc1O[C@@H]1O[C@H](CO)[C@@H](O)[C@H](O)[C@H]1O [salicin]
- EC50 (hTAS2R16 (ssr3-hTAS2R16) [1]): 500 µM
- EC50 (hTAS2R16 (ssr3-hTAS2R16) [2]): 1360 µM
- EC50 (hTAS2R16 (ssr3-hTAS2R16) [3]): 2440 µM
- EC50 (hTAS2R16 (ssr3-hTAS2R16) [4]): 11500 µM
